Laboratory results taken from patent publication US9993492B2, “Lysophospholipids and lysophospholipid analogues against honeybee brood diseases” (University of Graz, priority 2013, dated 2018).
Read-outs that look alike come from different tables or passages of the source.

Assays:
[1] = tested on: Paenibacillus larvae; assay: Antimicrobial assay in BHI liquid medium, vegetative forms of Paenibacillus larvae (MIC); type: cell-based; details: for MIC / MIC (ppm): vegetative forms of Pl, liquid medium; for inhibitory / antibacterial activity against Pl (in words): in vitro
Description: For the evaluation of certain fatty acids and phospholipids, overnight cultures of vegetative forms of Pl were used (for results see Table 1.1).
(§1) As test organisms, several different strains of Paenibacillus larvae were used.
(§2) Overnight cultures of the vegetative forms of bacteria were prepared in BHI (brain heart infusion) liquid medium.
From these overnight cultures, an inoculum of 50 μl is added to 1.0 ml of BHI liquid medium to perform the bacterial test in liquid medium. The compound 1-O-oleoyl-sn-glycero-3-phosphocholine (oleoyl-LPC) together with a positive control was then added at concentrations of 2, 5 and 10 ppm and the test tubes were incubated for 24 h at 34.5° C. Then, the extinction of the solution was measured photometrically.

[2] = tested on: Melissococcus plutonius; assay: Antimicrobial assay in liquid Basal Medium against Melissococcus plutonius (MIC); type: cell-based; details: for MIC / MIC (ppm): M. pl. in BM liquid medium, OE at 600 nm after 5 days; for inhibitory / antibacterial activity against M. pl. (in words): in vitro
Description: M. pl. was cultured in liquid Basal Medium (BM) for 4 days at 35° C. and from here serial dilutions were carried out to estimate CFU/ml by plating onto BM agar plates. 5 days later CFU were count and concentration was estimated to be 3.46*10^6 CFU/ml. For the antimicrobial assay, an inoculum of 50 μl of the liquid culture is added to 1 mL of BM liquid medium. A set of different substances were tested in different concentrations (2, 5 and 10 ppm) in order to find out their inhibitory effect against M. pl growth. For substances tested, concentration applied and results see table 1.2. Three replicates per substance were included in the experiment. 5 days after the experiment was started OE (optical extinction) was measured at 600 nm.

[3] = tested on: Paenibacillus larvae (Eric II test strain); assay: Inhibition zone test on Columbia agar; type: cell-based; details: amount 30 μg; 24 h, 34.5° C.
Description: as §1, §2
For the inhibition zone test, 500 μL of overnight culture were added to 15-20 mL of Columbia agar, mixed and poured onto a petri dish. After the agar solidified, either punched wholes are filled with different amounts of test compounds or test compounds are pipetted on paper discs (5 mm Ø). The plate is then incubated for 24 h (34.5° C.) and zones of inhibition are measured and given in mm. Lactic acid and penicillin G were used as positive controls.
E II—Eric II (test strain of Pl)

[4] = tested on: honeybee larvae; type: in vivo; details: for toxicity to honeybee larvae (footnote b): in vivo; for Ndead larvae total: days 1-7
Description: First instar larvae were transferred into plastic queen cups and fed the following diets: On the first day 10 μL of diet containing 6% glucose, 6% fructose, 1% yeast extract and 50% royal jelly were fed. Test substances (1-O-oleoyl-sn-glycero-3-phosphocholine (oleoyl-LPC), stearic acid, lysophosphatidylinositol and linoleic acid) were added to the first diet in amounts of 0.5 to 10 μg/larvae. For infection with spores of Paenibacillus larvae, larvae were grafted into 5 μL of diet containing test substances and subsequently 5 μL of diet with about 50 added Pl spores were given. Larvae were not fed on the second day to assure the consumption of the given diet. On the third day 20 μL of diet containing 7.5% glucose, 7.5% fructose, 1.5% yeast extract and 50% royal jelly were fed. Amounts of 30, 40 and 60 μL of diet composed of 9% glucose, 9% fructose, 2% yeast extract and 50% royal jelly were fed on the 4th, 5th and 6th day (method modified after Aupinel et al. [Aupinel et al. 2005. Bull Insectol 58:107-111]. Larvae were incubated at 34.5° C. and 95% relative humidity which was reduced to 80% on day 7. The mortality was checked daily for the first 7 days and when individuals emerged from queen cups at day 18 after the transfer into cups. To reduce the time for sporulation of Pl in the lab for security reasons, infection tests with Pl spores were stopped at day 7 with some experiments extend to day 12.
Larvae were fed according to a slightly modified rearing method of Aupinel et al., (2005). Larvae were fed for 6 days with different amounts of diets which always contained 50% of an aqueous solution (A, B, C) and 50% royal jelly (w/w). The solutions consisted of yeast extract (A=2%, B=3%, C=4%), glucose and fructose (A=12%, B=15%, C=18% each). 50 g portions of royal jelly (purchased from the Styrian school of beekeepers) were freeze stored at −20° C. Once a day all components of the needed diet were mixed freshly, warmed and fed to the larvae with a micro-pipette. On day 1 and 2 each larva was fed with 10 μL of diet A, on day three with 20 μL of diet B, on day four (30 μL), five (40 μL) and six (50 μL) with diet C. This way, each larva was supported with a total amount of 160 μL of food. The test compounds (see Table 4) were added each at the respective concentration on day 1, i.e. stearic acid (10 μg/larva), lysophosphatidylinositol (5 μg/larva), linoleic acid (12 μg/larva) and oleyol-LPC (10 μg/larva). Each larva was checked for its state of health under the binocular before feeding. A larva was defined healthy when movements of spiracles could be observed and it was shiny and plump. Cups with dead larvae were removed from the plate to prevent infections. To avoid microbial contamination, feeding took place under a laminar flow. Larvae were incubated at 34.5° C. and 90% RH. The mortality rates of the larvae are given below in table 4.1.

[5] = tested on: spores of Paenibacillus larvae; assay: Spore assay in BHI liquid medium with plating for CFU; type: cell-based; details: lowest investigated dose (5 ppm); 114.6±28.4 spores per vial; 4 and 6 days
Description: A stock solution containing spores at a known concentration is used to inoculate c. 100 spores/mL medium. This assay is carried out in 20 mL cultivation tubes containing 1.0 mL of BHI (brain heart infusion) liquid medium. To this medium containing c. […] spores, test compounds are added at different concentrations (e.g., 2, 5 and 10 ppm), together with positive control (penicillin G at 5 ppm) and blank control.
To verify inoculation with c. 100 spores/mL, tubes containing BHI+spores are plated out immediately on agar plates to assess the number of colony forming units (CFU) after 6 days of incubation at 34.5° C.
For the control of viability of the spores, the turbidity (due to germination of spores and formation of vegetative forms) of tubes containing BHI+spores is evaluated on day 4.
For the test probes, bacterial growth is evaluated on day 4 and 6. For those tubes which are negative for bacterial growth, the whole medium (c. 1 mL) is plated onto agar plates and evaluated for CFUs after 2 and 6 days of incubation. CFUs visible after two days result from vegetative forms, while CFUs appearing after […] stem from spores.
The results of these tests allow identifying whether the tested compounds have an effect on spore germination in liquid medium and the viability of the spores as assessed by their germination on agar plates. […]

[6] = Paenibacillus larvae, 24 h, read-out: MIC (ppm)
[7] = Paenibacillus larvae, read-out: MIC
[8] = Melissococcus plutonius, 120 h, read-out: MIC
[9] = Melissococcus plutonius, 120 h, read-out: MIC (ppm)
[10] = linoleic acid 12 μg/larva added on day 1, Nlarvae 48
[11] = stearic acid 10 μg/larva added on day 1, Nlarvae 96
[12] = LPI 5 μg/larva added on day 1, Nlarvae 96

Compound: CCCCCCCCCCCCCCCCCC(=O)OC[C@@H](O)COP(=O)([O-])OCC[N+](C)(C)C [1-O-stearoyl-sn-glycero-3-phosphocholine]
- MIC [1, 6]: 5 mg/L
- MIC [1, 7]: > 9.5 µM
- inhibitory / antibacterial activity against Pl (in words) [1]: good in vitro Pl inhibitory activity
- MIC [2, 8]: > 5.7 µM
- MIC [2, 9]: 3 mg/L

Compound: CC(O)C(=O)O (stereo not shown) [LA (C+), lactic acid]
- Inhibition zone (mm) [3]: 5 mm

Compound: CCCCC/C=C\C/C=C\CCCCCCCC(=O)O [linoleic acid]
- toxicity to honeybee larvae (footnote b) [4]: ^btoxic to honeybee larvae
- Ndead larvae day 1 [4, 10]: 0
- Ndead larvae day 2 [4, 10]: 18
- Ndead larvae day 3 [4, 10]: 2
- Ndead larvae day 4 [4, 10]: 3
- Ndead larvae day 5 [4, 10]: 1
- Ndead larvae day 6 [4, 10]: 1
- Ndead larvae day 7 [4, 10]: 1
- Ndead larvae total [4, 10]: 26
- MIC [1, 6]: 0.5 mg/L
- MIC [1, 7]: 1.8 µM
- MIC [2, 8]: 3.6 µM
- MIC [2, 9]: 1 mg/L

Compound: CCCCCCCCCCCCCCCCOP(=O)([O-])OCC[N+](C)(C)C [miltefosine, hexadecylphosphocholine]
- MIC [1, 6]: 2 to 5 mg/L
- MIC [1, 7]: 7.4 µM
- inhibitory / antibacterial activity against Pl (in words) [1]: good in vitro Pl and M. pl. inhibitory activity
- killing of vegetative forms upon germination of spores [5]: all vegetative forms are killed
- MIC [2, 8]: 4.9 µM
- MIC [2, 9]: 2 mg/L
- inhibitory / antibacterial activity against M. pl. (in words) [2]: good in vitro Pl and M. pl. inhibitory activity

Compound: CCCCCCCC/C=C\CCCCCCCC(=O)O [oleic acid]
- toxicity to honeybee larvae (footnote b) [4]: ^btoxic to honeybee larvae
- MIC [1, 6]: 1 mg/L
- MIC [1, 7]: 3.5 µM
- MIC [2, 8]: 3.5 µM
- MIC [2, 9]: 1 mg/L

Compound: CCCCCCCCCCCCCCCC(=O)O [palmitic acid]
- MIC [1, 6]: > 20 mg/L
- MIC [1, 7]: > 78 µM
- MIC [2, 8]: > 40 µM
- MIC [2, 9]: > 15 mg/L

Compound: CCCCCCCCCCCCCCCCCCOP(=O)([O-])OC1CC[N+](C)(C)CC1 [perifosine, 1,1-dimethylpiperidinium-4-yl octadecyl phosphate]
- MIC [1, 6]: 2 mg/L
- MIC [1, 7]: 4.3 µM
- inhibitory / antibacterial activity against Pl (in words) [1]: good in vitro Pl and M. pl. inhibitory activity
- MIC [2, 8]: 4.3 µM
- MIC [2, 9]: 2 mg/L
- inhibitory / antibacterial activity against M. pl. (in words) [2]: good in vitro Pl and M. pl. inhibitory activity

Compound: CCCCCCCCCCCCCCCCCC(=O)O [stearic acid]
- Ndead larvae day 1 [4, 11]: 0
- Ndead larvae day 2 [4, 11]: 0
- Ndead larvae day 3 [4, 11]: 1
- Ndead larvae day 4 [4, 11]: 0
- Ndead larvae day 5 [4, 11]: 1
- Ndead larvae day 6 [4, 11]: 3
- Ndead larvae day 7 [4, 11]: 1
- Ndead larvae total [4, 11]: 6
- MIC [1, 6]: > 20 mg/L
- MIC [1, 7]: > 70 µM
- MIC [2, 8]: > 35 µM
- MIC [2, 9]: > 10 mg/L

Compound: L-α-lysophosphatidylinositol
- Ndead larvae day 1 [4, 12]: 0
- Ndead larvae day 2 [4, 12]: 0
- Ndead larvae day 3 [4, 12]: 0
- Ndead larvae day 4 [4, 12]: 0
- Ndead larvae day 5 [4, 12]: 1
- Ndead larvae day 6 [4, 12]: 1
- Ndead larvae day 7 [4, 12]: 2
- Ndead larvae total [4, 12]: 4
- inhibitory / antibacterial activity against Pl (in words) [1]: did not show significant inhibitory activity
- MIC (ppm) [1]: >50 ppm
- MIC ([1]; read-out: MIC): >80 µM
- MIC (ppm) [2]: >10 ppm
- MIC ([2]; read-out: MIC): >15 µM
- inhibitory / antibacterial activity against M. pl. (in words) [2]: did not show significant inhibitory activity

Compound: lysophosphatidylcholine
- larval mortality compared with control group ([4]; single dose fed on day one, up to 1-2% of fresh body weight of larvae younger than one day, assessed on day 7): no higher mortality than found in the control group
- MIC (ppm) [1]: 2-5 ppm
- MIC (ppm) [2]: 2-5 ppm
